Measured values taken from patent publication US11028127B2, “Peptides capable of reactivating p53 mutants” (Yeda Research and Development Co. Ltd., priority 2013, dated 2021).

Test system: Mut-p53
Assay: Total activity score over combined assays (Table 8)
Set-up: scale not given here
Conditions: for Activity Score: Table 10 summary of activity of the peptides tested; for AS (Activity Score): total score of Table 7
Excerpt: Several alternative and complementary methods to screen lead peptide candidates for conformational and functional effects on Mut-p53 were employed. For increased penetration of peptide across cell membranes each peptide contains 3-6 Arginine residues either as part of its sequence or added either at its N-terminus or its C-terminus. […] In-vitro based assays for evaluation were first performed, such as ELISA for assessment of p53 conformation and sequence-specific DNA binding of p53.

Substance	Activity Score	AS (Activity Score)
pCAP1 (EVTFRHSVV)	32	32
pCAP2 (VWVHDSCHANLQNYRNYLLP)	2	2
pCAP3 (FWTQSIKERKMLNEHDFEVR)	12	12
pCAP4 (EHDFEVRGDVVNGRNHQGPK)	2	2
pCAP5 (LEVIYMI)	2	2
pCAP6 (LGIDEDEETETAPE)	5	5
pCAP7 (SPLQTPAAPGAAAGPALSPV)	6	6
pCAP9 (TIIHREDEDEIEW)	17	17
pCAP10 (VAEFAQSIQSRIVEWKERLD)	8	8
pCAP11 (EWKERLDKEFSLSVYQKMKF)	16	16
pCAP12 (GGGGGGGGGGGG)	0	0
pCAP13 (HFSHHLK)	4	4
pCAP14 (HHFSHHWKT)	9	9
pCAP15 (THFSHHLKH)	12	12
pCAP16 (LPNPPERHH)	24	24
pCAP17 (LHSKTLVL)	23	23
pCAP18 (SHQVHTHHNN)	6	6
pCAP19 (NPNTYVPHWMRQ)	0	0
pCAP20 (HHPWTHHQRWS)	13	13
pCAP21 (NHPWQFPNRWTV)	29	29
pCAP22 (SLLIGFGIIRSR)	5	5
pCAP23 (IRILMFLIGCGR)	22	22
pCAP24 (LRCLLLLIGRVG)	23	23
pCAP25 (YRRLLIGMMW)	0	0
pCAP26 (DEFHSFYTARQTG)	0	0
pCAP27 (VHEVTHHWL)	5	5
pCAP28 (HTDSHPHHHHPH)	24	24

Substance	Activity Score	AS (Activity Score)
pCAP29 (KPDSPRV)	0	0
pCAP30 (TIHPSIS)	16	16
pCAP31 (PPYSQFLQWYLS)	0	0
pCAP32 (TSPLQSLK)	4	4
pCAP33 (SILTLRLRRLRR)	16	16
pCAP34 (SILTLSRIVLGWW)	14	14
pCAP35 (GAMHLPWHMGTL)	28	28
pCAP36 (YPTQGHLR)	39	39
pCAP37 (KLQVPIK)	6	6
pCAP38 (WTLSNYL)	2	2
pCAP39 (DSLHSTY)	2	2
pCAP41 (WHHRQQIPRPLE)	2	2
pCAP42 (MHPPDWYHHTPKH)	29	29
pCAP43 (TDSHSHH)	15	15
pCAP44 (VPHIHEFT)	16	16
pCAP45 (HDTHNAHVG)	0	0
pCAP46 (ASWQALALYAAGW)	34	34
pCAP47 (TLYLPHWHRH)	14	14
pCAP48 (IPMNFTSHSLRQ)	13	13
pCAP49 (TRILCIVMM)	8	8
pCAP50 (WSEYDIPTPQIPP)	0	0
pCAP51 (AILTLILRRVIWP)	4	4
pCAP52 (SPYPIRT)	3	3
pCAP53 (ILVIIQRIM)	3	3
pCAP54 (IRGRIIR)	26	26
pCAP55 (FLLPEPDENTRW)	8	8
pCAP56 (ATPFHQT)	5	5

Substance	Activity Score	AS (Activity Score)
pCAP57 (LMSNAQY)	8	8
pCAP58 (SILPLFLIRRSG)	5	5
pCAP59 (FLIRRSG)	9	9
pCAP60 (SFILFIRRGRLG)	40	40
pCAP61 (KDLPFYSHLSRQ)	17	17
pCAP62 (YELPHHAYPA)	10	10
pCAP63 (HNHHHSQHTPQH)	9	9
pCAP64 (APSIFTPHAWRQ)	2	2
pCAP65 (THFSHHLKHRRRRRRRRRR)	17	17
pCAP66 (THFSHHLKGGGRRQRRRP)	2	2
pCAP67 (LHSKTLVLGGGRRRRGDR)	2	2
pCAP68 (YRRLLIGMMWRRRRRRRRRRR)	39	39
pCAP69 (SILTLSRRRRRRRRRR)	0	0
pCAP70 (SILTLSRGRKKRRQRRRR)	33	33
pCAP71 (WTLSNYLGGRKKRRQRRRR)	2	2
pCAP72 (SCRCRLRRRRRRRRRR)	5	5
pCAP73 (SCRCRLRGDRGDR)	0	0
pCAP74 (IRGRIIRRKKRRQRRRRGDR)	6	6
pCAP75 (TRILCIVRKKRRQRRRRGDR)	32	32
pCAP76 (GGGGGGGGGRRRRRRR)	0	0
pCAP77 (SEYLCSSLDAAG)	0	0
pCAP78 (GESFVQHVFRQN)	0	0
pCAP79 (SVHHHHRMHLVA)	0	0
pCAP80 (HLHKHHYKDSRM)	9	9
pCAP81 (VRCIFRGIWVRL)	2	2
